“Also recorded” adds a separate entry of the source.
Experiments:
[1] = target: T1, CD86 (B7-2) (Homo sapiens, UniProt P42081); details: cited from earlier work
T1 sequence (P42081 24-329): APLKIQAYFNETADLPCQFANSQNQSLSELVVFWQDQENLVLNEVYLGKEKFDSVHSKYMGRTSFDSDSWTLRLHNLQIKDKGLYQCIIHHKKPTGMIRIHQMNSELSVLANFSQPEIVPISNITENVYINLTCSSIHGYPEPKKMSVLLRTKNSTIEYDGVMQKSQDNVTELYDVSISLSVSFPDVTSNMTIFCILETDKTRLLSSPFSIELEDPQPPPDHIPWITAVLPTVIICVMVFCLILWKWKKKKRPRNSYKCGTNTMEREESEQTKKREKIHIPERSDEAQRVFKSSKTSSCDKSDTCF

[2] = target: T2, CD80 (B7-1) (Homo sapiens, UniProt P33681); details: cited from earlier work
T2 sequence (P33681 35-288): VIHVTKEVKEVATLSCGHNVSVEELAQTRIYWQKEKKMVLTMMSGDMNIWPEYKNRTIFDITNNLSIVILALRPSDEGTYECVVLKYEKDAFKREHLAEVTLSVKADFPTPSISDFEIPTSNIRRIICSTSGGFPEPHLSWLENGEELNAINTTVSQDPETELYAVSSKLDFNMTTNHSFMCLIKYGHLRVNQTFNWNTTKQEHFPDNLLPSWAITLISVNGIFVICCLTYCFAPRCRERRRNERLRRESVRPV

[3] = target: PD-1 (Homo sapiens, UniProt Q15116); details: read-out: Kd (dissociation constant), binding to PD-1; cited from earlier work
[4] = tested on: human islet-like organoids; assay: Amyloid polypeptide (hIAPP) toxicity in human islet-like organoids; assay type: cell-based; details: 24 hours
Text: The generation of functional human organs according to methods described herein provides new strategies for drug-screening and disease modeling. Specifically, functional organoids can be used as models of type 2 diabetes for drug screening.

[5] = tested on: human iPSC derived cells (islet-like organoids, MCS, HILOs); assay: Glucose-stimulated insulin/c-peptide secretion assay (GSIS, ELISA); assay type: cell-based; details: 3 mM vs 20 mM glucose
Description: Insulin release from intact islets was monitored using batch incubation methods as reported by E. Yoshihara et al., 2016, Cell metabolism, 23:622-634. Briefly, overnight-cultured, isolated pancreatic islets (RPMI-1640 medium supplemented with 10% (v/v) fetal bovine serum and 1% (v/v) Antibiotic-Antimycotic (Gibco)) were pre-cultured at 37° C. for 30 minutes in Krebs-Ringer bicarbonate buffer (KRBB) containing 129.4 mM NaCl, 3.7 mM KCl, 2.7 mM CaCl2), 1.3 mM KH2PO4, 1.3 mM MgSO4, 24.8 mM NaHCO3 (equilibrated with 5% CO2, 95% O2, pH 7.4), 10 mM HEPES and 0.2% (v/v) BSA (fraction V, Sigma) (KRBH) with 3 mM glucose). […] After 30 minutes, the islets were pelleted by centrifugation and secreted insulin levels were determined in the medium by Enzyme Linked Immunosorbent Assay (ELISA), (Rat/mouse Insulin ELISA KIT (Millipore) and Human Insulin ELISA KIT or ultrasensitive human c-peptide ELISA Kit (Millipore) for mouse and human islets, respectively). […] After 30 minutes, the cells were pelleted by centrifugation and c-peptide levels were determined in the supernatant medium using the human c-peptide ELISA KIT (Millipore). […]
Insulin release from intact islets was monitored using batch incubation methods (Yoshihara et al., 2010, Nat. Commun. 1:127). […] After 30 min, the cells were pelleted by centrifugation and c-peptide levels were determined by human c-peptide ELISA KIT (Millipore).

[6] = tested on: PD-L1 expression in wHILOs; assay: PD-L1 induction by IFNγ in wHILOs; assay type: cell-based, human
Description: For acute treatment, wHILOs were treated with 10 ng/ml IFNγ in the differentiation medium (S5 with 10 μM Trolox, 2 μM R428, 1 mM N-acetyl cysteine, 10 μM Alk5 inhibitor II, 1 μM T3 and 100 ng/ml rhWnt4 (recombinant human Wnt4)) for 2 hours. Cells were then washed twice with PBS prior to culturing in differentiation medium (S5 with 10 μM Trolox, 2 μM R428, 1 mM N-acetyl cysteine, 10 μM Alk5 inhibitor II, 1 μM T3 and 100 ng/ml rhWnt4) (single pulse stimulation). IFNγ exposure was repeated 3 times with washing and 24 hours resting time in differentiation medium (S5 with 10 μM Trolox, 2 μM R428, 1 mM N-acetyl cysteine, 10 μM Alk5 inhibitor II, 1 μM T3 and 100 ng/ml rhWnt4) between each IFNγ exposure (MPS stimulation) to generate wHILO^ie. After the final IFNγ pulse, cells were cultured in the tissue culture incubator for a week prior to the RNA-seq analyses (FIGS. 14A-14C), ATAC-seq analyses (FIG. 14D) and transplantation into STZ-induced diabetic C57BL6J mice (FIG. 5J) or humanized mice (FIG. 15B).
Total RNA was extracted using TRIzol reagent (Invitrogen) and RNeasy KIT (Qiagen). Reverse transcription was performed with a SuperScript III First-Strand Synthesis System kit (Invitrogen) or PrimeScript RT reagent kit (TAKARA). Real time quantitative RT-PCR (qPCR) was performed using SYBR Green (Bio-Rad).

[7] = tested on: PD-L1 expression in human islets; assay: PD-L1 induction by IFNγ in human islets; assay type: cell-based; details: 12 hours after IFNγ treatment (FIG. 12F)
[8] = tested on: chromatin accessibility in HILO cells; assay: ATAC-Seq chromatin accessibility in HILOs; assay type: cell-based, human
Text: […] D. Buenrostro et al., 2015, Current Protocols in Molecular Biology, 109:21-29. Reads were aligned by Bowtie to hg19, and peaks were called by HOMER using default settings. Differential peaks and motif analyses from 2 biological duplicates were identified using HOMER essentially as instructed (see, e.g., S. Heinz et al., 2010, J. Mol. Cell, 38:576-589). Detailed methods for HOMER are freely available, e.g., at http://http://homer.salk.edu/homer/. Briefly, the program searches against the target and background sequences for enrichment of known motifs, and returns motifs enriched with a threshold of 1.5-fold change and a p-value of less than 0.05. Promoter regions, defined as 1 kilobase (kB) upstream from the transcription start site, of genes with enhanced chromatin accessibility upon Wnt4 treatment, were interrogated for enriched motifs of 8-16 bp using HOMER motif analysis.

[9] = tested on: human islet-like organoids; assay: Proinsulin-NanoLuc Gaussia luciferase insulin secretion assay in single or pooled islets/organoids; assay type: cell-based; details: pooled organoids (10 to 100 per assay)
Text: Recent studies have reported the generation of insulin producing β-like cells from hESC and hiPSC capable of secreting insulin in response to glucose (Pagliuca et al., 2014, Cell, 159, 428-439; Rezania et al., 2014, Nature Biotechnology, 32(11):1121-33; Russ et al., 2015, FMBO Journal, 34:1759-1772). […] To date, efforts have focused on the independent generation of insulin producing β-like cells, glucagon producing α-like cells, and somatostatin producing 6-like cells from hPSC. However, these approaches lack the supporting cells important for regulation, such as mesenchymal cells, adipose cells, and vasculature cells. Since the 3D structure of islets naturally enhances their function, these missing cellular components may compromise the functionality of islet-like cells clusters. […] To test this idea, single organoid proinsulin secretion assays were performed. Human islet-like organoids generated by methods described herein are morphologically identical with human islet.
Mouse islets, human islets and human islets like organoids were plated in their respective growth media with 10 μg/ml Polybrene® polymer (Santacruz). Viruses were then added. After overnight culture, cells were placed in fresh growth media. […]

[10] = tested on: INS-1 cells; assay: Proinsulin-NanoLuc Gaussia luciferase insulin secretion assay in INS-1 cells; assay type: cell-based, rat; details: 20 mM glucose with Exendin-4
Description: It was previously published that a reporter construct, in which the Gaussia luciferase is placed within the c-peptide portion of proinsulin accurately measures insulin secretion without affecting β-cell function (Burns et al., 2015, Cell metabolism, 21, 126-137). Using a lentiviral system, INS-1 cells stably expressing this Gaussia luciferase were generated. Luciferase secretion from INS-1 cells stably expressing Proinsulin-NanoLuc increased with high-glucose (20 mM), high glucose with Exendin-4 (G20 mM+Ex4), and the depolarizing agent, potassium chloride, confirming the utility of this reporter system. Next, the usefulness of this reporter to measure insulin secretion in mouse or human islets transiently infected with the Proinsulin-NanoLuc reporter was evaluated. Luciferase secretion in response to 20 mM high glucose was detected in both transiently infected mouse and human islets were detected. Importantly, the assay sensitivity was sufficient that insulin secretion could be qualified at the level of single islets. […] (See, e.g., WO 2017/205511). […]

Sequence of PD-1 (Q15116 25-288): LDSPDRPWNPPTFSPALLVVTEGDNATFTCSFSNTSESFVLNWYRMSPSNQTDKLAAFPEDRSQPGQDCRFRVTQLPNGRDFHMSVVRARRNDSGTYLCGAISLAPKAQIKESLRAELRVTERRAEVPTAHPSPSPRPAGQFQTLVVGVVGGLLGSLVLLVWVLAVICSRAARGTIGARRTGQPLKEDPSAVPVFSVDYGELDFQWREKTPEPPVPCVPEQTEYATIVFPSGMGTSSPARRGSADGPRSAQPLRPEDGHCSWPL

Molecule: PD-L2: related molecule that shares PD-1 as a receptor
- affinity for CD86 (in words) [1]: does not have affinity
- affinity for CD80 (in words) [2]: does not have affinity
- Kd [3]: 140 nM

Molecule: hIAPP: amyloid polypeptide, an inducer of β cell loss in type 2 diabetic patients (KCNTATCATQRLANFLVHSSNNFGAILSSTNVGSNTY; Islet amyloid polypeptide; UniProt P10997 34-70, looked up)
- cell cycle arrest [4]: dose-dependently induced G0/G1 arrest

Molecule: Oc1nc(-c2ccc(C(F)(F)F)cc2)nc2c1CSCC2 [XAV939, reference compound]
- glucose-stimulated insulin (c-peptide) secretion in vitro [5]: not blocked

Molecule: IFNγ: recombinant human IFNγ (R&D Systems, 285-IF) used to induce PD-L1 expression
- duration of sustained PD-L1 expression after MPS ([6]; at least 3 pulses, 10 ng/ml, 2 hours per pulse): at least 7 days
- PD-L1 expression after repeated short IFNγ exposures (MPS) (in words) ([6]; multiple pulse stimulation): high levels of PD-L1 protein expression; also recorded: sustained PD-L1 expression
- PD-L1 induction after single IFNγ exposure (in words) ([6]; single / acute exposure): rapidly and robustly induced; also recorded: maximum PD-L1 induction; also recorded: transient
- GSIS functionality after MPS IFNγ ([5]; wHILOs): not compromised
- increase in PD-L1 expression [7]: approximately 20 fold
- chromatin accessibility at PD-L1, IRF9, JUNB, JUND loci ([8]; after MPS IFNγ treatment): persistent increases
- chromatin accessibility at IRF1, STAT1 ([8]; after acute (12 h) IFNγ treatment): not sustained

Molecule: GLP-1: incretin used for co-stimulation of insulin secretion
- GSIS by proinsulin luciferase secretion assay [9]: enhanced GSIS

Molecule: Exendin-4
- luciferase secretion (insulin secretion reporter) [10]: increased

— patent publication US12637662B2, “Cells, islets, and organoids that evade immune detection and autoimmunity, methods of production and use thereof” (SALK INSTITUTE FOR BIOLOGICAL STUDIES, priority 2018, dated 2026)
